In ChEMBL document CHEMBL1153188, “Quinoline-3-carboxamide containing sulfones as liver X receptor (LXR) agonists with binding selectivity for LXRbeta and low blood-brain penetration” (Bioorg Med Chem Lett, 2010):

Legend:
THP-1 [1] = assay: Stimulation of [3H]cholesterol efflux in human THP1 foam cells loaded with ac-LDL relative to TO901317; type: functional, cell-based
[2] = molecular target: T1, Oxysterols receptor LXR-alpha (Homo sapiens, UniProt Q13133); assay: Displacement of [3H]TO901317 from human recombinant LXRalpha expressed in Escherichia coli by flashplate method
T1 sequence (Q13133 whole entry): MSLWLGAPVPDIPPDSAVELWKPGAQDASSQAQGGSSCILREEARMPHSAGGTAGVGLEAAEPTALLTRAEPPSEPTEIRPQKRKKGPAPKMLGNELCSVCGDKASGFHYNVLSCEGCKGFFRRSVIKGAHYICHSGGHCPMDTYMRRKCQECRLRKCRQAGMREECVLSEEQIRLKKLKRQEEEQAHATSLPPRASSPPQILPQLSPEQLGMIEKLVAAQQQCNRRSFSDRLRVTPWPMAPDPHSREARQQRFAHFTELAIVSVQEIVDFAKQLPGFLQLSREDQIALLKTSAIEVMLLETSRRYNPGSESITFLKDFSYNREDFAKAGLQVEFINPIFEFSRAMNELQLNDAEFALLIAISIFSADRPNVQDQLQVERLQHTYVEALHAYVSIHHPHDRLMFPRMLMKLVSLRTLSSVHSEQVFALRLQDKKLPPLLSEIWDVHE

[3] = molecular target: T2, Oxysterols receptor LXR-beta (Homo sapiens, UniProt P55055); assay: Displacement of [3H]TO901317 from human recombinant LXRbeta expressed in Escherichia coli by flashplate method
THP-1 [4] = assay: Effect on ABCA1 gene expression in human differentiated THP1 cells relative to TO901317; type: functional
[5] = molecular target: T2, Oxysterols receptor LXR-beta
THP-1 [6] = assay: Effect on ABCA1 gene expression in human differentiated THP1 cells; type: functional, cell-based
HepG2 [7] = assay: Effect on triglyceride accumulation in human HepG2 cells relative to TO901317; type: functional
[8] = molecular target: T1, Oxysterols receptor LXR-alpha
HepG2 [9] = assay: Effect on triglyceride accumulation in human HepG2 cells; type: functional, cell-based
[10] = Cmax in Long Evans rat brain at 10 mg/kg, po; type: ADME, organism-based; set-up: dose 10 mg/kg, route oral
THP-1 [11] = assay: Stimulation of [3H]cholesterol efflux in human THP1 foam cells loaded with ac-LDL; type: functional, cell-based
Plasma [12] = assay: AUC (0 to infinity) in Long Evans rat plasma at 10 mg/kg, po; type: ADME, organism-based; set-up: time infinity, dose 10 mg/kg, route oral; conditions: in vivo
[13] = Cmax in Long Evans rat plasma at 10 mg/kg, po; type: ADME, organism-based; set-up: dose 10 mg/kg, route oral
[14] = Ratio of AUC (0 to infinity) in brain to AUC (0 to infinity) in plasma in Long Evans rat at 10 mg/kg, po; type: ADME, organism-based; set-up: dose 10 mg/kg, route oral; conditions: brain and plasma
Plasma [15] = assay: AUC (0 to infinity) in Long Evans rat brain at 10 mg/kg, po; type: ADME, organism-based; set-up: time infinity, dose 10 mg/kg, route oral; conditions: in vivo
Plasma [16] = assay: AUC (0 to infinity) in Long Evans rat plasma at 30 mg/kg, po; type: ADME, organism-based; set-up: time infinity, dose 30 mg/kg, route oral; conditions: in vivo
[17] = Ratio of AUC (0 to infinity) in brain to AUC (0 to infinity) in plasma in Long Evans rat at 30 mg/kg, po; type: ADME, organism-based; set-up: dose 30 mg/kg, route oral; conditions: brain and plasma
[18] = Cmax in Long Evans rat plasma at 30 mg/kg, po; type: ADME, organism-based; set-up: dose 30 mg/kg, route oral
[19] = Cmax in Long Evans rat brain at 30 mg/kg, po; type: ADME, organism-based; set-up: dose 30 mg/kg, route oral
Plasma [20] = assay: AUC (0 to infinity) in Long Evans rat brain at 30 mg/kg, po; type: ADME, organism-based; set-up: time infinity, dose 30 mg/kg, route oral; conditions: in vivo

T2 sequence (P55055 whole entry): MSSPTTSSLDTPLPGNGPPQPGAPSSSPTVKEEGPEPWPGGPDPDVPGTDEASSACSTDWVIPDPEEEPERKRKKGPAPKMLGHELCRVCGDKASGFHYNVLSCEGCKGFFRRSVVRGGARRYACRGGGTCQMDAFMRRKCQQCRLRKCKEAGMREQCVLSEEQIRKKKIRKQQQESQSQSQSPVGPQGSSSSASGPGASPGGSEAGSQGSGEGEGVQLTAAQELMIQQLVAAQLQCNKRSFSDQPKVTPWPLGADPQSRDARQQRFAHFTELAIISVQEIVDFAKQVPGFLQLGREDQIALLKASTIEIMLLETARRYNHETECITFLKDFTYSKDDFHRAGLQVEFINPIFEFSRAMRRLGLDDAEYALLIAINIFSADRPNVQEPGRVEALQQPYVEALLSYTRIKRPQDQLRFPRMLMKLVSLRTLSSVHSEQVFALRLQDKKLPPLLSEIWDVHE

Row | Compound | IC50 [2] [nM] | IC50 [3] [nM] | other results
1 | O=C(O)Cc1ccc(COc2cccc(-c3c(Cc4ccccc4)cnc4c(C(F)(F)F)cccc34)c2)cc1 |  |  | Activity (THP-1 [1]): 88%
2 | CCOC(=O)c1cnc2c(C(F)(F)F)cccc2c1-c1cccc(Oc2cccc(S(C)(=O)=O)c2)c1 | 6.6 | 2 | 
3 | CS(=O)(=O)c1cccc(Oc2cccc(-c3c(C(N)=O)cnc4ccccc34)c2)c1 | > 10000 | 2850 | 
4 | CCCS(=O)(=O)c1cccc(Oc2cccc(-c3c(C(N)=O)cnc4c(C(F)(F)F)cccc34)c2)c1 | 1360 | 57 | 
5 | CC(C)S(=O)(=O)c1cccc(Oc2cccc(-c3c(C(N)=O)cnc4c(C(F)(F)F)cccc34)c2)c1 | 286 | 5 | 
6 | CCS(=O)(=O)c1cccc(Oc2cccc(-c3c(C(N)=O)cnc4c(C(F)(F)F)cccc34)c2)c1 | 453 | 11 | 
7 | CCNC(=O)c1cnc2c(C(F)(F)F)cccc2c1-c1cccc(Oc2cccc(S(C)(=O)=O)c2)c1 | 6860 | 730 | 
8 | CS(=O)(=O)c1cccc(Oc2cccc(-c3c(C(N)=O)cnc4c(F)cccc34)c2)c1 | 12700 | 590 | 
9 | CS(=O)(=O)c1cccc(Oc2cccc(-c3c(C(N)=O)cnc4c(Cl)cccc34)c2)c1 | 543 | 16 | Activity (THP-1 [1]): 71%; Efficacy (THP-1 [4]): 107%; Cmax [10]: 107 ng/mL; EC50 (THP-1 [11]): 10 nM; EC50 [5]: 630 nM; EC50 (THP-1 [6]): 440 nM; AUC (Plasma [12]): 5417 ng/mL; Cmax [13]: 1270 ng/mL; Efficacy (HepG2 [7]): 68%; Kp [14]: 0.08; EC50 [8]: 3000 nM; EC50 (HepG2 [9]): 1250 nM; AUC (Plasma [15]): 457 ng/mL
10 | CS(=O)(=O)c1cccc(Oc2cccc(-c3c(CN)cnc4c(C(F)(F)F)cccc34)c2)c1 | 445 | 77 | 
11 | Fc1ccc(-c2c3cccc(C(F)(F)F)c3nn2Cc2ccc(F)cc2Cl)cc1 [LXR-623] |  |  | Efficacy (THP-1 [4]): 100%; AUC (Plasma [16]): 13057 ng/mL; Kp [17]: 1.2; Cmax [18]: 2850 ng/mL; Efficacy (HepG2 [7]): 38%; Cmax [19]: 3530 ng/mL; AUC (Plasma [20]): 15312 ng/mL; EC50 (HepG2 [9]): 1000 nM

Continued, in another order:

Row | IC50 [2] [nM] | IC50 [3] [nM] | Compound | other results
12 | 756 | 28 | Cc1cccc2c(-c3cccc(Oc4cccc(S(C)(=O)=O)c4)c3)c(C(N)=O)cnc12 | 
13 | 600 | 18 | CS(=O)(=O)c1cccc(Oc2cccc(-c3c(C(N)=O)cnc4c(C(F)(F)F)cccc34)c2)c1 | Efficacy (THP-1 [4]): 104%; EC50 [5]: 1600 nM; EC50 (THP-1 [6]): 110 nM; Efficacy (HepG2 [7]): 47%; EC50 [8]: 4500 nM; EC50 (HepG2 [9]): 370 nM
14 | 552 | 18 | CS(=O)(=O)c1cc(F)cc(Oc2cccc(-c3c(C(N)=O)cnc4c(C(F)(F)F)cccc34)c2)c1 | 
15 | > 10000 | 367 | CNC(=O)c1cnc2c(C(F)(F)F)cccc2c1-c1cccc(Oc2cccc(S(C)(=O)=O)c2)c1 | 
16 | 6350 | 1080 | CS(=O)(=O)c1cccc(Oc2cccc(-c3c(C(=O)O)cnc4c(C(F)(F)F)cccc34)c2)c1 | 
17 | 26600 | 5290 | CS(=O)(=O)c1cccc(Oc2cccc(-c3c(-n4cnnn4)cnc4c(C(F)(F)F)cccc34)c2)c1 | 
18 | 29800 | 5130 | CS(=O)(=O)c1cccc(Oc2cccc(-c3c(C(=N)N)cnc4c(C(F)(F)F)cccc34)c2)c1 | 
19 | 1770 | 62 | CS(=O)(=O)c1cc(Cl)cc(Oc2cccc(-c3c(C(N)=O)cnc4c(C(F)(F)F)cccc34)c2)c1 | 
20 | 13.4 | 2.2 | CS(=O)(=O)c1cccc(Oc2cccc(-c3c(C#N)cnc4c(C(F)(F)F)cccc34)c2)c1 | 
